Measurements as given in ChEMBL document CHEMBL1125171, “Approaches to isozyme-specific inhibitors. 17. Attachment of a selectivity-inducing substituent to a multisubstrate adduct. Implications for facilitated design of potent, isozyme-selective inhibitors” (J Med Chem, 1990).

Tests used:
[1] = Ratio of inhibitor constant for ATP substrate site of methionine adenosyl transferase and ATP substrate site of M-2 variant methionine adenosyl transferase
[2] = Ratio of inhibitor constant for ATP substrate site of methionine adenosyl transferase and ATP substrate site of M-T variant methionine adenosyl transferase
[3] = Ratio of inhibitor constant for Met substrate site of methionine adenosyl transferase and ATP substrate site of M-2 variant methionine adenosyl transferase
[4] = Ratio of inhibitor constant for Met substrate site of methionine adenosyl transferase and ATP substrate site of M-T variant methionine adenosyl transferase
[5] = target: S-adenosylmethionine synthase isoform type-2 (Rattus norvegicus) (UniProt P18298); assay: Inhibition constants against ATP substrate site of M-2 (kidney form) variant of rat Methionine adenosyltransferase
[6] = target: S-adenosylmethionine synthase isoform type-2 (Rattus norvegicus) (UniProt P18298); assay: Inhibition constants with Met (L-methionine) substrate site of M-2 (kidney form) variant of rat Methionine adenosyltransferase
[7] = target: S-adenosylmethionine synthase isoform type-2 (Rattus norvegicus) (UniProt P18298); assay: Inhibition constants against ATP substrate site of M-T (Novikoff Ascitic Hepatoma form) variant of rat Methionine adenosyltransferase
[8] = target: S-adenosylmethionine synthase isoform type-2 (Rattus norvegicus) (UniProt P18298); assay: Inhibition constants against Met (L-methionine)P substrate site of M-T (Novikoff Ascitic Hepatoma form) variant of rat Methionine adenosyltransferase

Sequence of S-adenosylmethionine synthase isoform type-2 (Rattus norvegicus) (P18298 whole entry, looked up, stated change not applied, canonical isoform): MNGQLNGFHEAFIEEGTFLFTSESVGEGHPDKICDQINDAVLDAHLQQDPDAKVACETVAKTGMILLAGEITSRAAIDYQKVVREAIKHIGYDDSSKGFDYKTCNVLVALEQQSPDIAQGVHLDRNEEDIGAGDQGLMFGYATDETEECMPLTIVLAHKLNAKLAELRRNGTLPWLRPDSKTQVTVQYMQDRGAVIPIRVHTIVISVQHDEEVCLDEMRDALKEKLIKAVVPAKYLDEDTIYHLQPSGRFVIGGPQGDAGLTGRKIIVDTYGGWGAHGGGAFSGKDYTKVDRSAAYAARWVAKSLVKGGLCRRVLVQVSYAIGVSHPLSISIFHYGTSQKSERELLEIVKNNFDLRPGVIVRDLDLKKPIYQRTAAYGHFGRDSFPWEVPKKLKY

| Ratio [1] | Ratio [2] | Ratio [3] | Ratio [4] | Ki [5] [nM] | Ki [6] [nM] | Ki [7] [nM] | Ki [8] [nM] | SMILES |
| --- | --- | --- | --- | --- | --- | --- | --- | --- |
| 1170 | 1270 | 1.7 | 22 | 120 | 2900 | 110 | 740 | CCCCSc1ncnc2c1ncn2[C@@H]1O[C@H]([C@H](CSCC[C@H](N)C(=O)O)OP(=O)(O)OP(=O)(O)NP(=O)(O)O)[C@@H](O)[C@H]1O |
| 0.45 | 1.4 | – | – | 310000 | – | 100000 | – | CCCCSc1ncnc2c1ncn2[C@@H]1O[C@H](COP(=O)(O)OP(=O)(O)OP(=O)(O)O)[C@@H](O)[C@H]1O |
| 1080 | 670 | 7.7 | 22 | 130 | 650 | 210 | 670 | Nc1ncnc2c1ncn2[C@@H]1O[C@H]([C@H](CSCCC(N)C(=O)O)OP(=O)(O)OP(=O)(O)NP(=O)(O)O)[C@@H](O)[C@H]1O (stereo not given in full) |
